Consider twelve molecules from patent US20250179531A1, “COMPOSITIONS AND METHODS FOR HOMOLOGY-DIRECTED REPAIR GENE MODIFICATION” (VOR BIOPHARMA INC., priority 2022, published 2025).

Assay type in all cases: cell-based, human
One series relates to GBA gene. Briefly: Editing of the GBA gene in CD34+ cells, ICE analysis of sequencing data. The text has this:
CD34+ cells were electroporated with RNP comprising the designed sgRNAs and with the designed ssODNs. Cells were screened by ICE analysis of sequencing data.
To optimize HDR-mediated editing of the GBA gene loci associated with Gaucher disease, ssODN candidates were screened for their ability to promote high editing efficiencies. Four ssODNs (ssODN1-4) comprising a sequence with a modification to generate the N409S mutation in exon 9 of the GBA gene and two ssODNs (ssODN5 and ssODN6) comprising a sequence with a modification to generate the L483P mutation in exon 10 of the GBA gene were screened. CD34+ cells were electroporated with different combinations of RNPs and ssODNs that corresponded to their respective target sequences, as described above, grown for 2-3 days, and then analyzed for cell viability and by sequencing (FIG. 10A).

For another series, the system named is CCR5 gene. Kind of series: ICE analysis of sequencing data, Pvu1 site insertion into CCR5 in CD34+ cells. Particulars: for HDR-mediated editing efficiency (promoting HDR): CD34+ cells in SCGM with hSCF, FLT3-L, TPO, added to RNP and ssODN, FIG. 4A; for efficiency of HDR in CD34+ cells: SR1 and UM171, in the presence or in the absence of IL-6. Here is the method: The presence of the Pvu1 restriction site in the CCR5 locus was also detected by sequencing. Sequencing data was analyzed via inference of CRISPR/Cas9 (ICE) software to quantify the percent of insertion of the 6 nucleotide Pvu1 site.
To determine conditions that would enhance HDR-mediated editing efficiency, the role of media conditions was assessed. CD34+ cells were cultured in stromal cell growth media (SCGM) supplemented with human stem cell factor (hSCF), Fms-like tyrosine kinase 3 Ligand (FLT3-L), and thrombopoietin (TPO) to promote cell differentiation and proliferation. Using ICE analysis of sequencing data to detect Pvu1 restriction site insertion into the CCR5 gene of CD34+ cells, cells were electroporated with DNA repair modulators to skew repair pathway utilization toward HDR following Cas9 cleavage in combination with cell expansion compounds Interleukin-6 (IL6), StemRegenin 1 (SR1), and UM171 in addition to RNP and ssODN. DNA repair modulators investigated included SCR7 (a ligase IV inhibitor), NU7441 (a DNA-PK inhibitor), Rucaparib (a PARP inhibitor), and RS-1 (an HDR enhancer).

A further series deals with RAB11a locus. Briefly: Flow cytometry of EGFP reporter from capped dsODN integrated at RAB11a in T cells. Particulars: 3 μg Cas9, 3 μg RAB11a sgRNA, 1 μg capped dsODN; NU7441 1 μM, SCR7 5 μM, and/or SR1 5 μM in media 24 hours post-electroporation. From the text: Two respective capped, dsODNs were designed comprising an EGFP reporter and homology arms to direct integration at either the AAVS1 or RAB11a loci in T cells (FIG. 16A-16B). T cells were electroporated with dsODN and Cas9 RNP as described herein. Flow cytometry analyses were used to confirm EGFP expression in electroporated T cells. Approximately 20% of cells electroporated with capped, AAVS1 dsODN and 38% of cells electroporated with capped, RAB11a dsODN were GFP positive (FIG. 17A).
On the technique in general: Flow cytometry measures light scatter and fluorescence of single cells or particles in a stream.

A further series relates to T cells. Kind of series: T cell viability after electroporation and addition of NHEJ modulators. The following applies: NU7441 1 μM, SCR7 5 μM, and/or SR1 5 μM in media 24 hours post-electroporation.

Regarding “SG2: Cas9 sgRNA to human GBA, position 1226; targeting domain CACAUGGUACAGGAGGUUCU (SEQ ID NO: 6) (as printed in the source, key not given here)”, the “editing efficiency of exon 9 of the GBA gene” value in the series on GBA gene is on record as “high editing efficiency”.
As for Interleukin-6 [IL6], the “HDR-mediated editing efficiency (promoting HDR)” value (shortened to “HDR-mediated editing efficiency”) in the series with CCR5 gene was “improved”. In addition, in the series with CCR5 gene (presence or absence of IL6 in CD34+ cell media, FIG. 4B), the overall editing efficiency result is “did not significantly affect”. Further, in the series with CCR5 gene (presence or absence of IL6 in CD34+ cell media, FIG. 4C), the HDR entry is “did not significantly affect”.
Take `O=c1[nH]c(=S)[nH]c(N=Cc2ccccc2)c1N=Cc1ccccc1` [SCR7]: the “HDR-mediated editing efficiency” value with CCR5 gene is “no significant advantage”. Further, the “increase in GFP expression” value in the series on RAB11a locus is given as “approximately 10%”.
Regarding “SG1: Cas9 sgRNA to human GBA, position 1226; targeting domain ACAUGGUACAGGAGGUUCUA (SEQ ID NO: 3) (as printed in the source, key not given here)”, the “editing efficiency of exon 9 of the GBA gene” value in the series on GBA gene was “high editing efficiency”.
On to `Cn1nnc(-c2ccc3c(c2)[nH]c2nc(Cc4ccccc4)nc(NC4CCC(N)CC4)c23)n1` (stereo not drawn) [UM171], for which, in the series on CCR5 gene, the “HDR-mediated editing efficiency” value is recorded as “improved” and the “efficiency of HDR in CD34+ cells” value is “significantly increase”.
Regarding “SG6: Cas9 sgRNA to human GBA, position 1448; targeting domain UGCCAGUCAGAAGAACGACC (SEQ ID NO: 18) (as printed in the source, key not given here)”, in the series on GBA gene, the “editing efficiency of exon 10 of the GBA gene” value was “high editing efficiency”.
On the same count and under the same terms, the value for “SG7: Cas9 sgRNA to human GBA, position 1448; targeting domain GCAUCAGUGCCACUGCGUCC (SEQ ID NO: 21) (as printed in the source, key not given here)” was “high editing efficiency”.
Regarding `O=c1cc(N2CCOCC2)oc2c(-c3cccc4c3sc3ccccc34)cccc12` [NU7441], the “HDR-mediated editing efficiency” value in the series on CCR5 gene is on record as “no significant advantage”. The “increase in GFP expression” value in the series with RAB11a locus is on record as “approximately 10%”. For the same molecule, the T cell viability entry with T cells is on record as “reduced”.
For `CC(C)n1cnc2c(NCCc3ccc(O)cc3)nc(-c3csc4ccccc34)nc21` [SR1, StemRegenin 1], in the series with CCR5 gene, the “HDR-mediated editing efficiency” value is “improved” and the “efficiency of HDR in CD34+ cells” value is on record as “significantly increase”. In addition, the “increase in GFP expression” value in the series with RAB11a locus is reported as “approximately 10%”. Further, the T cell viability entry with T cells is listed as “reduced”.
On to “SG4: Cas9 sgRNA to human GBA, position 1226; targeting domain CUAGAACCUCCUGUACCAUG (SEQ ID NO: 12) (as printed in the source, key not given here)”, for which the “editing efficiency of exon 9 of the GBA gene” value with GBA gene is listed as “high editing efficiency”.
`CNCc1ccc(-c2[nH]c3cc(F)cc4c3c2CCNC4=O)cc1` [Rucaparib]: in the series on CCR5 gene, the “HDR-mediated editing efficiency” value is given as “no significant advantage”.
Same read-out and setting: as for `O=C(Nc1ccc(Br)cc1)c1ccc(Br)c(S(=O)(=O)NCc2ccccc2)c1` [RS-1], the entry is “no significant advantage”.
